Laboratory results reported in patent publication US8476265B2, “Compounds-801” (AstraZeneca AB, priority 2010, dated 2013).

Legend:
[1] = target: T1, human muscarinic acetylcholine M3 receptor (Homo sapiens, UniProt P20309); experiment: Muscarinic 3 receptor binding assay ([3H]NMS competition, SPA), pIC50; conditions: [3H]NMS 0.1 nM, CHO-K1 cell membranes expressing human M3 receptor
T1 construct: expressed in transfected cells; host or cells: CHO-K1 (Chinese Hamster Ovary) cell membranes
Method in brief: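 SPA beads precoated with human M3-expressing CHO-K1 membranes were incubated 16 h at room temperature with serially diluted compound and 0.1 nM [3H]NMS (pH 7.4 HEPES buffer, MgCl2, BSA, 1% DMSO). Atropine (1 μM) defined non-specific binding; pIC50 is the 50% reduction in specific binding.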

[2] = target: T2, Adrenergic β2 (Homo sapiens, UniProt P07550); experiment: Adrenergic β2 mediated cAMP production in H292 cells (AlphaScreen), concentration response; assay type: cell-based; conditions: for EC50: 60 min, 300 μM rolipram, read-out: β2 pEC50 (converted); for β2 Intrinsic Activity: fraction relative to the maximum activity determined for formoterol
T2 construct: Adherent H292 cells are removed from tissue culture flasks by treatment with Accutase™ cell detachment solution; endogenous in cells; host or cells: H292 cells
T2 sequence (P07550 whole entry): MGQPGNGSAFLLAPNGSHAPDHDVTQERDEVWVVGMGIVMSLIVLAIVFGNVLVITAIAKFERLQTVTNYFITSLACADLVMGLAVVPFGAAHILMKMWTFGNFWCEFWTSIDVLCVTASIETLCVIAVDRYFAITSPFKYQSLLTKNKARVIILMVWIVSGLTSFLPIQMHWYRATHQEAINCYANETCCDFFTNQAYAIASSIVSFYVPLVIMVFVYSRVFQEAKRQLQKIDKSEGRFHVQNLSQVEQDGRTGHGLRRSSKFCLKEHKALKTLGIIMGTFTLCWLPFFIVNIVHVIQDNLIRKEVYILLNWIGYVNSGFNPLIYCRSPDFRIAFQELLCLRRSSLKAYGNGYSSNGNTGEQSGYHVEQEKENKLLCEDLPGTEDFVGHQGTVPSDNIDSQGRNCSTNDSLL
Method in brief: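 Intracellular cAMP in lysates read by AlphaScreen, calibrated with cAMP standards; curves fitted for pEC50, with intrinsic activity as a fraction of formoterol's maximum. Agonist exposure 60 min at room temperature after 10 min rolipram (300 μM final), 1% DMSO, HEPES-buffered HBSS pH 7.4.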

T1 sequence (P20309 whole entry): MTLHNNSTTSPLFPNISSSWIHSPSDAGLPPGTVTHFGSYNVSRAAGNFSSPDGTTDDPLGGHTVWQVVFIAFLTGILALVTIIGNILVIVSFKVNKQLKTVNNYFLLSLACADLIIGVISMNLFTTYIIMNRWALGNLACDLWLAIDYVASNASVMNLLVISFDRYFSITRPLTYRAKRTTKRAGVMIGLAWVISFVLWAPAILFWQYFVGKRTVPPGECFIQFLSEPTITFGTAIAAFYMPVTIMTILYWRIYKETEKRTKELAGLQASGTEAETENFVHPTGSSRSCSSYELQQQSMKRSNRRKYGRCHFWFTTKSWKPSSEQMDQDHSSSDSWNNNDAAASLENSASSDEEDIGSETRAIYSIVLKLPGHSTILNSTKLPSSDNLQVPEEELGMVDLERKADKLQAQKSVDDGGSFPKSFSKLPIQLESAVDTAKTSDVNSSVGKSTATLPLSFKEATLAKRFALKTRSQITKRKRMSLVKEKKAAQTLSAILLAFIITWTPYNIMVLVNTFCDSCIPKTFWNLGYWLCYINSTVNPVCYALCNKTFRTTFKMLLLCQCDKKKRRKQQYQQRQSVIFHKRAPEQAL

Structure (SMILES)	IC50 [1] [nM]	EC50 [2] [nM]	β2 Intrinsic Activity [2]
O=C1COc2c(CCNCCN(C(=O)CCOCCc3cccc(CN4CCC5(CC4)CN(C(=O)c4cc6ccccc6s4)CCO5)c3)C3CCCCC3)ccc(O)c2N1 [Example 81, 3-(3-((4-(Benzo[b]thiophene-2-carbonyl)-1-oxa-4,9-diazaspiro[5.5]undecan-9-yl)methyl)phenethoxy)-N-cyclohexyl-N-(2-(2-(5-hydroxy-3-oxo-3,4-dihydro-2H-benzo[b][1,4]oxazin-8-yl)ethylamino)ethyl)propanamide]	3.98	251	0.9
CC(C)c1nc(C(=O)N2CCOC3(CCN(Cc4cc(CCOCCC(=O)N(CCNCCc5ccc(O)c6c5OCC(=O)N6)C5CCCCC5)ccc4Cl)CC3)C2)cs1 [Example 49, 3-(4-Chloro-3-((4-(2-isopropylthiazole-4-carbonyl)-1-oxa-4,9-diazaspiro[5.5]undecan-9-yl)methyl)phenethoxy)-N-cyclohexyl-N-(2-(2-(5-hydroxy-3-oxo-3,4-dihydro-2H-benzo[b][1,4]oxazin-8-yl)ethylamino)ethyl)propanamide ditrifluoroacetate]	3.16	158	0.9
COc1cccc(CN(CCNCCc2ccc(O)c3c2OCC(=O)N3)C(=O)CCOCCc2cccc(CN3CCC4(CC3)CN(C(=O)c3csc(C(C)C)n3)CCO4)c2F)c1 [Example 23, 3-(2-Fluoro-3-((4-(2-Isopropylthiazole-4-carbonyl)-1-oxa-4,9-diazaspiro[5.5]undecan-9-yl)methyl)phenethoxy)-N-(2-(2-(5-hydroxy-3-oxo-3,4-dihydro-2H-benzo[b][1,4]oxazin-8-yl)ethylamino)ethyl)-N-(3-methoxybenzyl)propanamide ditrifluoroacetate]	0.316	79.4	1.2
CCC(CC)c1nc(C(=O)N2CCOC3(CCN(Cc4cccc(CCOCCC(=O)N(CC)CCNCCc5ccc(O)c6c5OCC(=O)N6)c4F)CC3)C2)cs1 [Example 9, N-Ethyl-3-(2-fluoro-3-((4-(2-(pentan-3-yl)thiazole-4-carbonyl)-1-oxa-4,9-diazaspiro[5.5]undecan-9-yl)methyl)phenethoxy)-N-(2-(2-(5-hydroxy-3-oxo-3,4-dihydro-2H-benzo[b][1,4]oxazin-8-yl)ethylamino)ethyl)propanamide ditrifluoroacetate]	0.501	31.6	0.8
CCN(CCNCCc1ccc(O)c2[nH]c(=O)sc12)C(=O)CCOCCc1ccc(OCCCN2CCC3(CC2)CN(C(=O)c2csc(C(C)C)n2)CCO3)cc1 [Example 62, N-Ethyl-N-(2-(2-(4-hydroxy-2-oxo-2,3-dihydrobenzo[d]thiazol-7-yl)ethylamino)ethyl)-3-(4-(3-(4-(2-isopropylthiazole-4-carbonyl)-1-oxa-4,9-diazaspiro[5.5]undecan-9-yl)propoxy)phenethoxy)propanamide ditrifluoroacetate]	0.794	100	0.7
CC(C)c1nc(C(=O)N2CCOC3(CCN(Cc4cccc(CCOCCC(=O)N(CCNCCc5ccc(O)c6c5OCC(=O)N6)C5CCCCC5)c4Cl)CC3)C2)cs1 [Example 27, 3-(2-Chloro-3-((4-(2-isopropylthiazole-4-carbonyl)-1-oxa-4,9-diazaspiro[5.5]undecan-9-yl)methyl)phenethoxy)-N-cyclohexyl-N-(2-(2-(5-hydroxy-3-oxo-3,4-dihydro-2H-benzo[b][1,4]oxazin-8-yl)ethylamine)ethyl)propanamide ditrifluoroacetate]	2	20	0.9
CCN(CCNCCc1ccc(O)c2[nH]c(=O)sc12)C(=O)CCOCCc1cccc(OCCCN2CCC3(CC2)CN(C(=O)c2csc(C(C)C)n2)CCO3)c1 [Example 61, N-Ethyl-N-(2-(2-(4-hydroxy-2-oxo-2,3-dihydrobenzo[d]thiazol-7-yl)ethylamino)ethyl)-3-(3-(3-(4-(2-isopropylthiazole-4-carbonyl)-1-oxa-4,9-diazaspiro[5.5]undecan-9-yl)propoxy)phenethoxy)propanamide ditrifluoroacetate]	2	20	0.7
CCCCc1nc(C(=O)N2CCOC3(CCN(Cc4cccc(CCOCCC(=O)N(CC)CCNCCc5ccc(O)c6c5OCC(=O)N6)c4Cl)CC3)C2)cs1 [Example 77, 3-(3-((4-(2-Butylthiazole-4-carbonyl)-1-oxa-4,9-diazaspiro[5.5]undecan-9-yl)methyl)-2-chlorophenethoxy)-N-ethyl-N-(2-(2-(5-hydroxy-3-oxo-3,4-dihydro-2H-benzo[b][1,4]oxazin-8-yl)ethylamino)ethyl)propanamide ditrifluoroacetate]	3.98	12.6	0.8
CCCCN(CCNCCc1ccc(O)c2c1OCC(=O)N2)C(=O)CCOCCc1cc(C)cc(CN2CCC3(CC2)CN(C(=O)c2csc(C(C)C)n2)CCO3)c1 [Example 65, N-Butyl-N-(2-(2-(5-hydroxy-3-oxo-3,4-dihydro-2H-benzo[b][1,4]oxazin-8-yl)ethylamino)ethyl)-3-(3-((4-(2-isopropylthiazole-4-carbonyl)-1-oxa-4,9-diazaspiro[5.5]undecan-9-yl)methyl)-5-methylphenethoxy)propanamide ditrifluoroacetate]	0.501	63.1	1.0
CC(C)Cc1nc(C(=O)N2CCOC3(CCN(Cc4cccc(CCOCCC(=O)N(CCNCCc5ccc(O)c6c5OCC(=O)N6)C5CCCCC5)c4)CC3)C2)cs1 [Example 94, N-Cyclohexyl-N-(2-(2-(5-hydroxy-3-oxo-3,4-dihydro-2H-benzo[b][1,4]oxazin-8-yl)ethylamino)ethyl)-3-(3-((4-(2-isobutylthiazole-4-carbonyl)-1-oxa-4,9-diazaspiro[5.5]undecan-9-yl)methyl)phenethoxy)propanamide]	0.251	126	1.0
CCCC[C@@H](C)N(CCNCCc1ccc(O)c2c1OCC(=O)N2)C(=O)CCOCCc1cccc(CCN2CCC3(CC2)CN(C(=O)c2csc(C)n2)CCO3)c1 [Example 38, (R)—N-(Hexan-2-yl)-N-(2-(2-(5-hydroxy-3-oxo-3,4-dihydro-2H-benzo[b][1,4]oxazin-8-yl)ethylamino)ethyl)-3-(3-(2-(4-(2-methylthiazole-4-carbonyl)-1-oxa-4,9-diazaspiro[5.5]undecan-9-yl)ethyl)phenethoxy)propanamide ditrifluoroacetate]	0.398	15.8	1.0
Cc1cc(C(=O)N2CCOC3(CCN(Cc4cccc(CCOCCC(=O)N(CCNCCc5ccc(O)c6c5OCC(=O)N6)C5CCCCC5)c4)CC3)C2)cs1 [Example 85, N-Cyclohexyl-N-(2-(2-(5-hydroxy-3-oxo-3,4-dihydro-2H-benzo[b][1,4]oxazin-8-yl)ethylamino)ethyl)-3-(3-((4-(5-methylthiophene-3-carbonyl)-1-oxa-4,9-diazaspiro[5.5]undecan-9-yl)methyl)phenethoxy)propanamide]	0.126	126	0.9
CC(C)c1nc(C(=O)N2CCOC3(CCN(Cc4cccc(CCOCCC(=O)N(CCNCCc5ccc(O)c6c5OCC(=O)N6)[C@H](C)c5ccccc5)c4F)CC3)C2)cs1 [Example 14, (R)-3-(2-Fluoro-3-((4-(2-isopropylthiazole-4-carbonyl)-1-oxa-4,9-diazaspiro[5.5]undecan-9-yl)methyl)phenethoxy)-N-(2-(2-(5-hydroxy-3-oxo-3,4-dihydro-2H-benzo[b][1,4]oxazin-8-yl)ethylamino)ethyl)-N-(1-phenylethyl)propanamide ditrifluoroacetate]	0.398	50.1	1.0
CC(C)c1nc(C(=O)N2CCOC3(CCN(Cc4cccc(OCCOCCC(=O)N(CCNCCc5ccc(O)c6c5OCC(=O)N6)C5CCCCC5)c4)CC3)C2)cs1 [Example 59, N-Cyclohexyl-N-(2-(2-(5-hydroxy-3-oxo-3,4-dihydro-2H-benzo[b][1,4]oxazin-8-yl)ethylamino)ethyl)-3-(2-(3-((4-(2-isopropylthiazole-4-carbonyl)-1-oxa-4,9-diazaspiro[5.5]undecan-9-yl)methyl)phenoxy)ethoxy)propanamide ditrifluoroacetate]	0.251	631	0.9
CC(C)c1nc(C(=O)N2CCOC3(CCN(Cc4cccc(SCCOCCC(=O)N(C)CCNCCc5ccc(O)c6[nH]c(=O)sc56)c4)CC3)C2)cs1 [Example 55, N-(2-(2-(4-Hydroxy-2-oxo-2,3-dihydrobenzo[d]thiazol-7-yl)ethylamino)ethyl)-3-(2-(3-((4-(2-isopropylthiazole-4-carbonyl)-1-oxa-4,9-diazaspiro[5.5]undecan-9-yl)methyl)phenylthio)ethoxy)-N-methylpropanamide ditrifluoroacetate]	0.126	100	0.6
CC(C)c1nc(C(=O)N2CCOC3(CCN(Cc4cccc(CCOCCC(=O)N(CCNCCc5ccc(O)c6c5OCC(=O)N6)CCC(C)(C)C)c4F)CC3)C2)cs1 [Example 17, N-(3,3-Dimethylbutyl)-3-(2-fluoro-3-((4-(2-isopropylthiazole-4-carbonyl)-1-oxa-4,9-diazaspiro[5.5]undecan-9-yl)methyl)phenethoxy)-N-(2-(2-(5-hydroxy-3-oxo-3,4-dihydro-2H-benzo[b][1,4]oxazin-8-yl)ethylamino)ethyl)propanamide ditrifluoroacetate]	0.316	50.1	1.0
